This is an account of results in patent US20200216417A1, “INHIBITORS OF FIBROBLAST ACTIVATION PROTEIN” (Praxis Biotech LLC, priority 2019, published 2020).

pIC50: −log10 of the molar value.

The target in assay [1] is T1, recombinant human DPP9 (rhDPP9) (Homo sapiens, UniProt Q86TI2).
T1 construct: purchased R&S system / R&D systems (both sic) 5419-SE
Briefly: DPP9 enzymatic activity assay, 40 ng rhDPP9, HEPES buffer. Type of assay: biochemical. The settings on record: Table 3A.

For assay [2], the target named is T2, FAPα (Mus musculus, UniProt P97321).
T2 construct: from tissue; host or cells: C57BL/6 mouse plasma (EDTA)
T2 sequence (P97321 24-761 limits assumed): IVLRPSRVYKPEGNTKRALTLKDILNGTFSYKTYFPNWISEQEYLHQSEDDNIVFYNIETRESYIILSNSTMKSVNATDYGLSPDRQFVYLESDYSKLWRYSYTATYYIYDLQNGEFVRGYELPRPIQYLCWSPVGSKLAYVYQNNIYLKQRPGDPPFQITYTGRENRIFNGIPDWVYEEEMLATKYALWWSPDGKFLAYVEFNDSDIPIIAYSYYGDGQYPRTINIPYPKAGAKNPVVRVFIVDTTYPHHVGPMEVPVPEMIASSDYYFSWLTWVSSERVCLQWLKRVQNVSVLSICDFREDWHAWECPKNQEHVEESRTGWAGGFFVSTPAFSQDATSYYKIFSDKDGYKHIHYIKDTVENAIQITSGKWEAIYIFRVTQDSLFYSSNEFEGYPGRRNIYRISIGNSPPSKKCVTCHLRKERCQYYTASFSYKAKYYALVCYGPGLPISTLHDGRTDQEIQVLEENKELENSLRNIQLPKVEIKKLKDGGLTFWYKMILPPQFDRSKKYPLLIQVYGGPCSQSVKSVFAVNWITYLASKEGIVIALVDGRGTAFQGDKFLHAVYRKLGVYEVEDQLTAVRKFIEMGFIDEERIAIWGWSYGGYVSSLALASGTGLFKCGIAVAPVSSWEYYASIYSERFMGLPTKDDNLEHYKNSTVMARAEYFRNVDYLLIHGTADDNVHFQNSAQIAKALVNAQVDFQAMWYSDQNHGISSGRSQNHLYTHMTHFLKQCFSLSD
Briefly: FAPα enzymatic activity in mouse plasma (PRXS-AMC). The class given is biochemical, C57BL/6 mouse. The settings on record: PRXS-AMC substrate, read-out: mouse plasma FAPα (PRXS-AMC) (exo IC50). The method, then:
Approximately 500 μL of whole blood from one C57BL/6 mouse was harvested into BD Microtainer® tubes (K2) EDTA (#365974, Becton Dickinson and Co.) via terminal cardiac puncture. The blood sample was immediately centrifuged at approximately 9000 g at 4° C. for 5 minutes. Plasma was separated and stored at −80° C. in aliquots of 300 μL. To assay baseline FAPα enzymatic exopeptidase activity, 5 μL of thawed, plasma was diluted (1:5) with cFAP buffer (100 mM Tris-HCl, 400 mM NaCl, 50 mM salicylic acid, 1 mM EDTA, pH 7.5) and mixed with 35 μL of the same buffer before being pre-incubated with different concentrations of 10 μL of test compounds or DMSO vehicle for 15 minutes at 37° C. in 96-well black plates (Nunc, #237108). After pre-incubation, 50 μL of 200 μM PRXS-AMC were added to the mixture. The assay was performed for 1 hour at 37° C. protected from light. 7-Amino-4-Methylcoumarin (AMC) release was detected measuring fluorescence at an excitation wavelength of 380 nm and an emission wavelength of 460 nm using a Multifunction Microplate Reader (Synergy 4, Biotek). All measurements were carried out at least as a single point.

The target of assay [3] is T3, circulating FAPα (Homo sapiens, UniProt Q12884).
T3 construct: from tissue; host or cells: human plasma (EDTA-K2) from healthy volunteers
T3 sequence (Q12884 24-760 limits assumed): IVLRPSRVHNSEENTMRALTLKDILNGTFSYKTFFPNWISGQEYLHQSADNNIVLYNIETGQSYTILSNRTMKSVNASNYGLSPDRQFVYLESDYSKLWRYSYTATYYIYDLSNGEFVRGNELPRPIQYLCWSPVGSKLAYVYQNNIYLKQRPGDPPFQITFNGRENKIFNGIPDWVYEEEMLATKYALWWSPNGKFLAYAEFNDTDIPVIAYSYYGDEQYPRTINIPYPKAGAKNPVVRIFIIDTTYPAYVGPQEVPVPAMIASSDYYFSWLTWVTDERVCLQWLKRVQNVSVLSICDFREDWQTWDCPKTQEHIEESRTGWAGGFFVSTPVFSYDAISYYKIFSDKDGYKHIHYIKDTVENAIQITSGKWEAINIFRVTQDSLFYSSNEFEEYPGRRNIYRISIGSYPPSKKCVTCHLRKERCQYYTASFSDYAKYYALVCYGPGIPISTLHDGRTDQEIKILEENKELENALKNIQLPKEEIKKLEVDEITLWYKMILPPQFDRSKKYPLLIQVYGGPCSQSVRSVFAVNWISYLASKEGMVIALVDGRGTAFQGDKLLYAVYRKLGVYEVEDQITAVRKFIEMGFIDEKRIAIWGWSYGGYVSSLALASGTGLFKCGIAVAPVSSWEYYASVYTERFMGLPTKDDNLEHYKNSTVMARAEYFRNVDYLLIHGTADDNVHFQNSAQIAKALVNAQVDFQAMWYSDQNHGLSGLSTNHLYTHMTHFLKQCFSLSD
Briefly: Ex vivo inhibition of circulating FAPα activity from human plasma (PRXS-AMC). Type of assay: biochemical. The procedure: Human blood was obtained from healthy young volunteers. Blood samples were collected in tubes coated with EDTA-K2 by venipuncture method, mixed gently, then kept on ice and centrifuged at 2,500×g for 15 minutes at 4° C. After plasma separation, samples were stored at −80° C. in aliquots of 300 μL.
Exemplary compounds were allowed to interact with the enzyme for 15 minutes at 37° C. After pre-incubation, 50 μl of 200 μM PRXS-AMC substrate were added to the all mixtures. All reactions were carried out for 1 h at 37° C. protected from light. AMC release was detected measuring fluorescence at an excitation/emission wavelength of 380/460 nm using a Multifunction Microplate Reader. All measurements were carried out as single point.

T1 sequence (Q86TI2 whole entry): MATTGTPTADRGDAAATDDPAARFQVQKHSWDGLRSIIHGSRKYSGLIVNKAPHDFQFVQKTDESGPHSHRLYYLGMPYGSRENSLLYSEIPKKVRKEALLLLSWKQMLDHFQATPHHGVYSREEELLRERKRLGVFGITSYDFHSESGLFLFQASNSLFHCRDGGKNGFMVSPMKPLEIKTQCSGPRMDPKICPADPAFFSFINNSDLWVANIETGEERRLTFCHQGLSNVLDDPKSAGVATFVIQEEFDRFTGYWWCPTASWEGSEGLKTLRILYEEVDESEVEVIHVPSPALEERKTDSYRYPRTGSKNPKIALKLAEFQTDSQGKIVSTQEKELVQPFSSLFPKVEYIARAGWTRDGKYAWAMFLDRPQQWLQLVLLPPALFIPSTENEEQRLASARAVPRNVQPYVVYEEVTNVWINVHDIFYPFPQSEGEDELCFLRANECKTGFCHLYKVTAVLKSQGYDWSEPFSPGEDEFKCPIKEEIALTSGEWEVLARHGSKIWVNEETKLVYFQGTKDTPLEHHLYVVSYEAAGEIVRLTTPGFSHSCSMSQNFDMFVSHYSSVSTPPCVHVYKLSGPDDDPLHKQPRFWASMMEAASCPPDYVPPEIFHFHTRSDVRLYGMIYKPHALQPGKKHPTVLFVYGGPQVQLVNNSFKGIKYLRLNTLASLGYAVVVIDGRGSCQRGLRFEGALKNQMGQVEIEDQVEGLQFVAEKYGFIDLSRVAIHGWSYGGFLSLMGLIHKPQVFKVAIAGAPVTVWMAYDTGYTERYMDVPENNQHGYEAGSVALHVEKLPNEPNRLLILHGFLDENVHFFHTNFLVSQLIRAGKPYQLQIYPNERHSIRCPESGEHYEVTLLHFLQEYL

In the case of `N#C[C@@H]1CC(F)(F)CN1C(=O)CNC(=O)c1ccncc1NCc1ccc(F)cc1` [Compound 2, (S)—N-(2-(2-cyano-4,4-difluoropyrrolidin-1-yl)-2-oxoethyl)-3-((4-fluorobenzyl)amino)isonicotinamide], the pIC50 (in general, the IC50 on a negative log10 scale, so that one unit is a factor of ten) is less than 5.00 in assay [1] and more than 6.00 in assay [2].
Turning to `COc1ccc(C(=O)Nc2cnccc2C(=O)NCC(=O)N2CC(F)(F)C[C@H]2C#N)cc1` [Compound 3, (S)—N-(2-(2-cyano-4,4-difluoropyrrolidin-1-yl)-2-oxoethyl)-3-(4-methoxybenzamido)isonicotinamide], the values for the negative logarithm of the IC50 (pIC50) in assay [1], in assay [2] and in assay [3] were 5.00 to 6.00, more than 6.00 and more than 6.00, respectively.
On to `N#C[C@@H]1CC(F)(F)CN1C(=O)CNC(=O)c1ccncc1NC(=O)COc1ccc(Cl)c(F)c1` [Compound 5, (S)-3-(2-(4-chloro-3-fluorophenoxy)acetamido)-N-(2-(2-cyano-4,4-difluoropyrrolidin-1-yl)-2-oxoethyl)isonicotinamide], for which the pIC50 in assay [1] was 5.00 to 6.00; in assay [2] it was more than 6.00.
Regarding `N#C[C@@H]1CC(F)(F)CN1C(=O)CNC(=O)c1ccncc1Cc1ccccc1F` [Compound 7, (S)—N-(2-(2-cyano-4,4-difluoropyrrolidin-1-yl)-2-oxoethyl)-3-(2-fluorobenzyl)isonicotinamide], the values for the negative logarithm of the IC50 (pIC50) in assay [1] and in assay [2] were 5.00 to 6.00 and more than 6.00, respectively.
Turning to `N#C[C@@H]1CC(F)(F)CN1C(=O)CNC(=O)c1ccncc1Cc1ccc(F)cc1` [Compound 8, (S)—N-(2-(2-cyano-4,4-difluoropyrrolidin-1-yl)-2-oxoethyl)-3-(4-fluorobenzyl)isonicotinamide], the negative logarithm of the IC50 (pIC50) in assay [1] was 5.00 to 6.00; in assay [2], more than 6.00.
In the case of `N#C[C@@H]1CC(F)(F)CN1C(=O)CNC(=O)c1ccncc1/C=C/c1ccc(Cl)cc1` [Compound 9, (S,E)-3-(4-chlorostyryl)-N-(2-(2-cyano-4,4-difluoropyrrolidin-1-yl)-2-oxoethyl)isonicotinamide], the pIC50 in assay [1], in assay [2] and in assay [3] was more than 6.00 throughout.
